Reference: US8822440B2, “Inhibiting cyclin D polypeptides” (Mayo Foundation for Medical Education and Research, priority 2006, dated 2014)
Entries after “also recorded” stand apart in the source; their conditions may differ.

How the values were obtained:
CCND2 promoter = assay: CCND2 promoter-luciferase transactivation assay in NIH3T3 cells with or without c-maf; type: cell-based, mouse; details: for effect on CCND2-luc expression, agent alone / effect on kinetin riboside-induced suppression of CCND2: NIH3T3 reporter cells; for effect on CCND2-luc expression, agent alone: 5 μM; for effect on CCND2-luc expression, agent alone / identified as putative inhibitor of CCND2 transactivation (screen hit): 16 hours; for effect on kinetin riboside-induced suppression of CCND2: with kinetin riboside; for identified as putative inhibitor of CCND2 transactivation (screen hit): ~5 μM, hit = 50% or more reduction in luciferase relative to cell viability
Experimental: Using this assay, Lopac (n=1280), Prestwick (n=1120), and Spectrum (n=2000) libraries of drugs and natural compounds were screened. In a parallel MTS assay, the effect of each compound on 3T3 viability was determined, allowing exclusion of compounds that caused secondary suppression of CCND2 due to non-specific cytotoxicity. […] These included monensin, patulin, β-lapachone, camptothecin, dihydrogambogic acid, gentian violet, thapsigargin, brefeldin A, pristimerin, and kinetin riboside.
Full-length c-maf cDNA was subcloned into an IRES-GFP MIEV retroviral vector and introduced into NIH3T3 cells by infection. Stable clones expressing GFP and c-maf were selected by flow cytometry and immunoblotting, respectively. The promoter of human cyclin D2 (−894 to −4; Brooks et al., J. Biol. Chem., 271, 9090-9 (1996)), containing c-maf responsive element sequence (MARE), was cloned from DNA from HeLa cells and inserted into the pGLbasic firefly luciferase vector (Promega, Madison, Wis.) immediately upstream of the luciferase gene. This construct was co-transfected with pcDNA3 (containing a neomycin resistance gene) into both NIH3T3 wild type cells and NIH3T3 cells stably over-expressing c-maf-IRES-GFP. Cells stably expressing c-maf, GFP, and luciferase were selected.
(§1) NIH3T3 cells stably expressing c-maf and the CCND2 promoter driving luciferase (13,000 cells per well) were plated in 96-well plates by a Biomek FX liquid handler (Beckman, Fullerton, Calif.). After the cells had adhered, they were treated with aliquots of molecules from LOPAC (Sigma, St. Louis, Mo.), Prestwick (Prestwick Chemical Inc, Illkirch, France) or Spectrum (Microsource Discovery Systems, Gaylordsville, Conn.) libraries of off-patent drugs and chemicals at a final concentration of ˜5 μM and <0.1% DMSO. Cells were incubated with compounds at 37° C. for 16 hours.
Luciferase assay. Luciferase activity was assessed according to the manufacturer's instructions (Promega, Madison, Wis.). Briefly, the cell culture medium was removed using an EMBLA plate washer (Molecular Devices, X) and Glo Lysis buffer (Promega) was added by robot. After a 10-minute incubation, an equal volume of Bright-Glo Luciferase substrate (Promega) was added, and luminescence signal was detected with a 96-well Luminoskan luminescence plate reader (Thermo Labsystem, Waltham, Mass.) using a 5 second integration.
Studies of kinetin riboside using 3T3-D2-luc cells. To examine CCND2 suppression induced by kinetin riboside, the reporter cells were exposed to kinetin riboside in combination with other drugs (all purchased from Sigma, St. Loius, Mo.) that influence CCND2 transcription or inhibit nucleoside transport or phosphorylation. NIH3T3 cells expressing the CCND2 promoter driving luciferase were incubated with kinetin riboside or vehicle control +/− forskolin, 4-(3-butoxy-4-methoxybenzyl)imidazolidin-2-one (BMBI), cantharadin, S-(4-Nitrobenzyl)-6-thioinosine (NBTI), or A-134974, as specified at 5 μM concentration for 16 hours at 37° C. […] Forskolin is a cell-permeable diterpenoid that activates adenylate cyclase resulting in increased cAMP concentration. BMBI (Sigma B8279) is an inhibitor of cAMP phosphodiesterase that also causes accumulation of cAMP. Cantharadin (C7632) is an inhibitor of protein phosphatase 2A and, from the library screen, mediates induction of CCND2. NBTI (Sigma N2255) is a potent adenosine uptake inhibitor, and A-134974 (Sigma A2846) is a selective inhibitor of adenosine kinase.
(§2) In an optimized automated assay, NIH3T3 cells over-expressing c-maf and the human cyclin D2 promoter driving luc were plated in 96-well plates by robot and following adhesion were treated for 16 hours with compounds at a final concentration of ˜5 μM and <0.1% DMSO. As a control, cells were treated with buffer alone. […] Thus, each compound from the library was tested in at least two assays—luciferase for CCND2 activity and MTS for viability. The coefficient of variance (CV) of the assay was <10%.

caspase 9 = assay: Immunoblot of caspase 9 cleavage in HMCL; type: cell-based, human; details: A-134974 2 μM, kinetin riboside 10 μM
Experimental: Immunoblotting. Cytosolic extracts were prepared from HMCL or purified patient CD138^+ myeloma cells following exposure to kinetin riboside. Cells were washed with cold PBS, resuspended in cold RIPA buffer (5×10^6 cells/100 μL) containing fresh protease and phosphatase inhibitors (Santa Cruz Biotechnology, Santa Cruz, Calif.) and incubated on ice for 30 minutes with gentle mixing. The supernatant was repossessed following high speed centrifugation, and protein concentrations were determined by the Bradford assay. Immunoblot assays were performed as described elsewhere (Krajewski et al., Anal. Biochem., 236:221-228 (1996)). Briefly, equal amounts of protein were separated by SDS-PAGE and transferred to a PVDF nitrocellulose membrane using a semi-dry apparatus. Membranes were blocked using 5% skim milk in Tris buffered saline and probed with monoclonal mouse anti-cyclin D1 (DCS-6, Biosource, Camarillo, Calif.), polyclonal rabbit anti-cyclin D2 (#2924, Cell Signalling Technology), monoclonal mouse anti-cyclin D3 (DCS-22, BioSource), polyclonal rabbit anti-c-Maf (M-153, Santa Cruz), polyclonal rabbit anti-Cleaved Caspase 9 (Asp315) (Cell Signaling Technology), monoclonal mouse anti-β-actin (Cell Signaling Technology) and/or monoclonal anti-a-tubulin (B-7)(Santa Cruz Biotechnology, Santa Cruz, Calif.). […]

[1] = system: cyclin D1, cyclin D2, cyclin D3; assay: Immunoblot of cyclin D proteins in HMCL; type: cell-based, human; details: A-134974 2 μM, kinetin riboside 10 μM
Experimental: Immunoblotting. Cytosolic extracts were prepared from HMCL or purified patient CD138^+ myeloma cells following exposure to kinetin riboside. Cells were washed with cold PBS, resuspended in cold RIPA buffer (5×10^6 cells/100 μL) containing fresh protease and phosphatase inhibitors (Santa Cruz Biotechnology, Santa Cruz, Calif.) and incubated on ice for 30 minutes with gentle mixing. The supernatant was repossessed following high speed centrifugation, and protein concentrations were determined by the Bradford assay. Immunoblot assays were performed as described elsewhere (Krajewski et al., Anal. Biochem., 236:221-228 (1996)). Briefly, equal amounts of protein were separated by SDS-PAGE and transferred to a PVDF nitrocellulose membrane using a semi-dry apparatus. Membranes were blocked using 5% skim milk in Tris buffered saline and probed with monoclonal mouse anti-cyclin D1 (DCS-6, Biosource, Camarillo, Calif.), polyclonal rabbit anti-cyclin D2 (#2924, Cell Signalling Technology), monoclonal mouse anti-cyclin D3 (DCS-22, BioSource), polyclonal rabbit anti-c-Maf (M-153, Santa Cruz), polyclonal rabbit anti-Cleaved Caspase 9 (Asp315) (Cell Signaling Technology), monoclonal mouse anti-β-actin (Cell Signaling Technology) and/or monoclonal anti-a-tubulin (B-7)(Santa Cruz Biotechnology, Santa Cruz, Calif.). Membrane proteins were visualized using HRP-conjugated species-specific secondary antibodies (Cell Signaling Technology) and enhanced chemiluminescence (Pierce, Rockford, Ill.).

NIH3T3 cells = type: cell-based, mouse; details: MTS
Experimental: as §1
(§3) Viability assay. The effects of screened compounds on cell viability was assessed by 3-(4,5-dimethyl[…])-5-(3-carboxymethoxyphenyl)-2-(4-sulfophenyl)-2-H-tetrazolium (MTS) assay according to the manufacture's instructions (Progmega, Madison, Wis.). MTS reagent (20 μL/well in 96 well plates) was added to cells, and these were then incubated at 37° C. for 4 hours. Absorbance at 490 nm was determined using a 96-well plate reader.
as §2

HMCL = assay: Cell cycle profiling of HMCL by flow cytometry; type: cell-based, human; details: Example 1, HMCL
Experimental: Cell cycle profiling. HMCL were incubated with drug or vehicle as indicated, washed and resuspended in 1 mL PBS. Ice cold ethanol was added dropwise to 75% with regular mixing, and suspensions were incubated at −20° C. for 1 hour. Cells were washed again with PBS and resuspended in 0.1 mL RNAse A (100 μg/mL) at room temperature for 5-10 minutes. Propidium iodide (200 μL×100 μg/mL) was added immediately prior to analysis by flow cytometry. Cellular aggregates were excluded using CellQuest Doublet Discriminator Module, and cell cycle profile was determined using ModFit LT Mac 3.1 SP2 (Verity Software House, TopSham, Me.).

[2] = system: human myeloma cell lines (HMCL); assay: HMCL viability / cytotoxicity (MTT, MTS); type: cell-based; details: MTT assays, 14 HMCL
Experimental: Subsequent validation studies using selected compounds in human myeloma cell lines (HMCL) confirmed successful suppression of both cyclin D2 and D1 polypeptides. Each of these compounds was then shown to be cytotoxic to a genetically diverse and standardized panel of 14 HMCL in MTT assays: monensin (10-760 nM), camptothecin (5-700 nM), dihydrogambogic acid (250-800 nM), pristimerin (150-500 nM), and kinetin riboside (2.5-20 μM). Cell cycle analysis confirmed induction of G0/G1 phase arrest for most compounds, consistent with cyclin D inhibition.
as §3

Nc1ncnc2c1c(I)cn2[C@@H]1C[C@H](N)[C@@H](O)[C@H]1O [A-134974]
effect on CCND2-luc expression, agent alone (CCND2 promoter): minimal enhancement
effect on kinetin riboside-induced suppression of CCND2 (CCND2 promoter): completely inhibits
effect on kinetin riboside-induced caspase 9 cleavage in HMCL (caspase 9): prevents
effect on cyclin D1 and D2 levels in kinetin riboside-treated HMCL [1]: partially rescues
effect on NIH3T3 viability (NIH3T3 cells): no effect on 3T3 cell viability

CCCCOc1cc(CC2CNC(=O)N2)ccc1OC (centres unmarked) [BMBI, 4-(3-butoxy-4-methoxybenzyl)imidazolidin-2-one]
effect on CCND2-luc expression, agent alone (CCND2 promoter): CCND2 transactivation

O=[N+]([O-])c1ccc(CSc2ncnc3c2ncn3[C@@H]2O[C@H](CO)[C@@H](O)[C@H]2O)cc1 [NBTI, S-(4-Nitrobenzyl)-6-thioinosine]
effect on kinetin riboside-induced suppression of CCND2 (CCND2 promoter): does not block kinetin riboside function

CC[C@@]1(O)C[C@H](O[C@H]2C[C@H](N(C)C)[C@H](O)[C@H](C)O2)c2c(cc3c(c2O)C(=O)c2c(O)cccc2C3=O)[C@H]1C(=O)OC [aklavine]
identified as putative inhibitor of CCND2 transactivation (screen hit) (CCND2 promoter): putative suppressors of CCND2
effect on NIH3T3 viability (NIH3T3 cells): excess NIH3T3 cytoxicity

C[C@H]1CCC/C=C/[C@@H]2C[C@H](O)C[C@H]2[C@H](O)/C=C/C(=O)O1 [brefeldin A]
identified as putative inhibitor of CCND2 transactivation (screen hit) (CCND2 promoter): putative CCND2 inhibitors

CC[C@@]1(O)C(=O)OCc2c1cc1n(c2=O)Cc2cc3ccccc3nc2-1 [camptothecin, reference compound]
identified as putative inhibitor of CCND2 transactivation (screen hit) (CCND2 promoter): putative CCND2 inhibitors; also recorded: putative suppressors of CCND2
cell cycle arrest phase (HMCL): S-phase arrest
cytotoxic concentration across panel of 14 HMCL [2]: 5 to 700 nM

C[C@@]12C(=O)OC(=O)[C@]1(C)[C@H]1CC[C@@H]2O1 [cantharadin]
effect on CCND2-luc expression, agent alone (CCND2 promoter): marked transactivation
